Test results: US10004701B2, “Methods and compositions for treating infection” (UNIVERSITY OF ROCHESTER, priority 2012, dated 2018)
Structures can show the parent of a compound that is named as a salt. Where two headings read alike, the source gives them in different places.

Columns and labels:
Experiment in all cases: AK assay 384-well format, Prestwick library screening
[1] = system: A. baumannii strain 98-37-09; format: cell-based, Acinetobacter baumannii; details: for fold induction at 50 µM: Acinetobacter baumannii, 983709, 3 h
[2] = system: S. aureus strain USA300-0114; format: cell-based, Staphylococcus aureus; details: for fold induction at 50 µM: Staphylococcus aureus, USA300, 3 h
E. coli = format: cell-based, Escherichia coli; details: for fold induction at 50 µM: Escherichia coli, 3 h
E. cloacae = format: cell-based, Enterobacter cloacae; details: for fold induction at 50 µM: Enterobacter cloacae, 3 h
P. aeruginosa = format: cell-based, Pseudomonas aeruginosa; details: for fold induction at 50 µM: Pseudomonas aeruginosa, 3 h
K. pneumoniae = format: cell-based, Klebsiella pneumoniae; details: for fold induction at 50 µM: Klebsiella pneumoniae, 3 h
E. faecium = format: cell-based, Enterococcus faecium; details: for fold induction at 50 µM: Enterococcus faecium, 3 h
[3] = 50 μM final drug concentration, 384-well format, cutoff for positive-scoring molecules 3-fold increase, read-out: AK-based Prestwick Library Screening Results, A. baumannii (increase in extracellular AK activity)
[4] = 50 μM final drug concentration, 384-well format, cutoff for positive-scoring molecules 3-fold increase, read-out: AK-based Prestwick Library Screening Results, S. aureus (increase in extracellular AK activity)
[5] = 50 μM final drug concentration, 384-well format, cutoff for positive-scoring molecules 3-fold increase, read-out: AK-based Prestwick Library Screening Results, E. coli (increase in extracellular AK activity)
[6] = 50 μM final drug concentration, 384-well format, cutoff for positive-scoring molecules 3-fold increase, read-out: AK-based Prestwick Library Screening Results, E. cloacae (increase in extracellular AK activity)
[7] = 50 μM final drug concentration, 384-well format, cutoff for positive-scoring molecules 3-fold increase, read-out: AK-based Prestwick Library Screening Results, P. aeruginosa (increase in extracellular AK activity)
[8] = 50 μM final drug concentration, 384-well format, cutoff for positive-scoring molecules 3-fold increase, read-out: AK-based Prestwick Library Screening Results, K. pneumoniae (increase in extracellular AK activity)
[9] = 50 μM final drug concentration, 384-well format, cutoff for positive-scoring molecules 3-fold increase, read-out: AK-based Prestwick Library Screening Results, E. faecium (increase in extracellular AK activity)
[10] = 50 μM final drug concentration, 384-well format, […]

C[C@@H]1[C@H](O)[C@@H](C)/C=C/C=C/C=C/C=C/C=C/C=C/C=C/[C@H](O[C@@H]2O[C@H](C)[C@@H](O)[C@H](N)[C@@H]2O)C[C@@H]2O[C@](O)(C[C@@H](O)C[C@@H](O)[C@H](O)CC[C@@H](O)C[C@@H](O)CC(=O)O[C@H]1C)C[C@H](O)[C@H]2C(=O)O [Amphotericin B]
AK-based Prestwick Library Screening Results: A. baumannii (increase in extracellular AK activity) ([1]; planktonic A. baumannii, 50 μM final drug concentration, 384-well, cutoff for positive-scoring molecules 3-fold increase): 0.5
AK-based Prestwick Library Screening Results: S. aureus (increase in extracellular AK activity) ([2]; planktonic S. aureus, 50 μM final drug concentration, 384-well, cutoff for positive-scoring molecules 3-fold increase): 0.5
AK-based Prestwick Library Screening Results: E. coli (increase in extracellular AK activity) (E. coli; planktonic E. coli, 50 μM final drug concentration, 384-well, cutoff for positive-scoring molecules 3-fold increase): 0.5
AK-based Prestwick Library Screening Results: E. cloacae (increase in extracellular AK activity) (E. cloacae; planktonic E. cloacae, 50 μM final drug concentration, 384-well, cutoff for positive-scoring molecules 3-fold increase): 0.5
AK-based Prestwick Library Screening Results: P. aeruginosa (increase in extracellular AK activity) (P. aeruginosa; planktonic P. aeruginosa, 50 μM final drug concentration, 384-well, cutoff for positive-scoring molecules 3-fold increase): 0.4
AK-based Prestwick Library Screening Results: K. pneumoniae (increase in extracellular AK activity) (K. pneumoniae; planktonic K. pneumoniae, 50 μM final drug concentration, 384-well, cutoff for positive-scoring molecules 3-fold increase): 0.7
AK-based Prestwick Library Screening Results: E. faecium (increase in extracellular AK activity) (E. faecium; planktonic E. faecium, 50 μM final drug concentration, 384-well, cutoff for positive-scoring molecules 3-fold increase): 0.9

CC1(C)S[C@@H]2[C@H](NC(=O)[C@H](N)c3ccccc3)C(=O)N2[C@H]1C(=O)O [Ampicillin trihydrate]
fold induction at 50 µM [1, 3]: 1.6
fold induction at 50 µM [2, 4]: 0.5
fold induction at 50 µM (E. coli; [5]): 12.2
fold induction at 50 µM (E. cloacae; [6]): 3.5
fold induction at 50 µM (P. aeruginosa; [7]): 0.7
fold induction at 50 µM (K. pneumoniae; [8]): 0.6
fold induction at 50 µM (E. faecium; [9]): 1.1

CCCc1ncc(C[n+]2ccccc2C)c(N)n1 [Amprolium hydrochloride]
fold induction at 50 µM [1, 3]: 0.5
fold induction at 50 µM [2, 4]: 0.5
fold induction at 50 µM (E. coli; [5]): 0.5
fold induction at 50 µM (E. cloacae; [6]): 0.4
fold induction at 50 µM (P. aeruginosa; [7]): 0.4
fold induction at 50 µM (K. pneumoniae; [8]): 0.6
fold induction at 50 µM (E. faecium; [9]): 0.9

Cc1c(N)c(=O)n(-c2ccccc2)n1C [Ampyrone]
fold induction at 50 µM [1, 3]: 0.9
fold induction at 50 µM [2, 4]: 0.8
fold induction at 50 µM (E. coli; [5]): 0.9
fold induction at 50 µM (E. cloacae; [6]): 1
fold induction at 50 µM (P. aeruginosa; [7]): 1
fold induction at 50 µM (K. pneumoniae; [8]): 0.7
fold induction at 50 µM (E. faecium; [9]): 1

Nc1cc(-c2ccncc2)c[nH]c1=O [Amrinone]
fold induction at 50 µM ([1]; 50 μM final drug concentration, cutoff for positive-scoring molecules 3-fold increase, read-out: AK-based Prestwick Library Screening Results, A. baumannii (fold increase in extracellular AK activity)): 1.2
fold induction at 50 µM ([2]; 50 μM final drug concentration, cutoff for positive-scoring molecules 3-fold increase, read-out: AK-based Prestwick Library Screening Results, S. aureus (fold increase in extracellular AK activity)): 1.1
fold induction at 50 µM (E. coli; 50 μM final drug concentration, cutoff for positive-scoring molecules 3-fold increase, read-out: AK-based Prestwick Library Screening Results, E. coli (fold increase in extracellular AK activity)): 1.3
fold induction at 50 µM (E. cloacae; 50 μM final drug concentration, cutoff for positive-scoring molecules 3-fold increase, read-out: AK-based Prestwick Library Screening Results, E. cloacae (fold increase in extracellular AK activity)): 44
fold induction at 50 µM (P. aeruginosa; 50 μM final drug concentration, cutoff for positive-scoring molecules 3-fold increase, read-out: AK-based Prestwick Library Screening Results, P. aeruginosa (fold increase in extracellular AK activity)): 1
fold induction at 50 µM (K. pneumoniae; 50 μM final drug concentration, cutoff for positive-scoring molecules 3-fold increase, read-out: AK-based Prestwick Library Screening Results, K. pneumoniae (fold increase in extracellular AK activity)): 1.1
fold induction at 50 µM (E. faecium; 50 μM final drug concentration, cutoff for positive-scoring molecules 3-fold increase, read-out: AK-based Prestwick Library Screening Results, E. faecium (fold increase in extracellular AK activity)): 1

CCC(C)(CN(C)C)OC(=O)c1ccccc1.Cl (stereo not shown) [Amyleine hydrochloride]
AK-based Prestwick Library Screening Results, A. baumannii (increase in extracellular AK activity) [1, 10]: 1.1
AK-based Prestwick Library Screening Results, S. aureus (increase in extracellular AK activity) [2, 10]: 1.1
AK-based Prestwick Library Screening Results, E. coli (increase in extracellular AK activity) (E. coli; [10]): 1.4
AK-based Prestwick Library Screening Results, E. cloacae (increase in extracellular AK activity) (E. cloacae; [10]): 1.2
AK-based Prestwick Library Screening Results, P. aeruginosa (increase in extracellular AK activity) (P. aeruginosa; [10]): 0.9
AK-based Prestwick Library Screening Results, K. pneumoniae (increase in extracellular AK activity) (K. pneumoniae; [10]): 0.8
AK-based Prestwick Library Screening Results, E. faecium (increase in extracellular AK activity) (E. faecium; [10]): 1.1

c1cncc([C@@H]2CCCCN2)c1 [Anabasine]
fold induction at 50 µM ([1]; 50 μM final drug concentration, planktonic, […], read-out: AK-based Prestwick Library Screening Results, A. baumannii (fold increase in extracellular AK activity)): 0.8
fold induction at 50 µM ([2]; 50 μM final drug concentration, planktonic, […], read-out: AK-based Prestwick Library Screening Results, S. aureus (fold increase in extracellular AK activity)): 0.6
fold induction at 50 µM (E. coli; 50 μM final drug concentration, planktonic, […], read-out: AK-based Prestwick Library Screening Results, E. coli (fold increase in extracellular AK activity)): 1
fold induction at 50 µM (E. cloacae; 50 μM final drug concentration, planktonic, […], read-out: AK-based Prestwick Library Screening Results, E. cloacae (fold increase in extracellular AK activity)): 1
fold induction at 50 µM (P. aeruginosa; 50 μM final drug concentration, planktonic, […], read-out: AK-based Prestwick Library Screening Results, P. aeruginosa (fold increase in extracellular AK activity)): 0.9
fold induction at 50 µM (K. pneumoniae; 50 μM final drug concentration, planktonic, […], read-out: AK-based Prestwick Library Screening Results, K. pneumoniae (fold increase in extracellular AK activity)): 0.8
fold induction at 50 µM (E. faecium; 50 μM final drug concentration, planktonic, […], read-out: AK-based Prestwick Library Screening Results, E. faecium (fold increase in extracellular AK activity)): 0.9

C[C@]12CC[C@@H](O)C[C@@H]1CC[C@@H]1[C@@H]2CC[C@]2(C)C(=O)CC[C@@H]12 [Androsterone]
fold induction at 50 µM ([1]; read-out: AK-based Prestwick Library Screening Results, A. baumannii (increase in extracellular AK activity)): 0.7
fold induction at 50 µM ([2]; read-out: AK-based Prestwick Library Screening Results, S. aureus (increase in extracellular AK activity)): 0.5
fold induction at 50 µM (E. coli; read-out: AK-based Prestwick Library Screening Results, E. coli (increase in extracellular AK activity)): 0.6
fold induction at 50 µM (E. cloacae; read-out: AK-based Prestwick Library Screening Results, E. cloacae (increase in extracellular AK activity)): 0.7
fold induction at 50 µM (P. aeruginosa; read-out: AK-based Prestwick Library Screening Results, P. aeruginosa (increase in extracellular AK activity)): 0.6
fold induction at 50 µM (K. pneumoniae; read-out: AK-based Prestwick Library Screening Results, K. pneumoniae (increase in extracellular AK activity)): 0.5
fold induction at 50 µM (E. faecium; read-out: AK-based Prestwick Library Screening Results, E. faecium (increase in extracellular AK activity)): 1

COc1ccc(C[C@H]2NC[C@H](O)[C@H]2OC(C)=O)cc1 [Anisomycin]
AK-based Prestwick Library Screening Results, A. baumannii (increase in extracellular AK activity) ([1]; planktonic A. baumannii, 50 μM final drug concentration, […]): 0.7
AK-based Prestwick Library Screening Results, S. aureus (increase in extracellular AK activity) ([2]; planktonic S. aureus, 50 μM final drug concentration, […]): 0.7
AK-based Prestwick Library Screening Results, E. coli (increase in extracellular AK activity) (E. coli; planktonic E. coli, 50 μM final drug concentration, […]): 0.7
AK-based Prestwick Library Screening Results, E. cloacae (increase in extracellular AK activity) (E. cloacae; planktonic E. cloacae, 50 μM final drug concentration, […]): 0.7
AK-based Prestwick Library Screening Results, P. aeruginosa (increase in extracellular AK activity) (P. aeruginosa; planktonic P. aeruginosa, 50 μM final drug concentration, […]): 0.7
AK-based Prestwick Library Screening Results, K. pneumoniae (increase in extracellular AK activity) (K. pneumoniae; planktonic K. pneumoniae, 50 μM final drug concentration, […]): 0.5
AK-based Prestwick Library Screening Results, E. faecium (increase in extracellular AK activity) (E. faecium; planktonic E. faecium, 50 μM final drug concentration, […]): 1.0

c1ccc(CN(CC2=NCCN2)c2ccccc2)cc1 [Antazoline hydrochloride]
fold induction at 50 µM [1, 3]: 0.8
fold induction at 50 µM [2, 4]: 0.8
fold induction at 50 µM (E. coli; [5]): 0.7
fold induction at 50 µM (E. cloacae; [6]): 0.8
fold induction at 50 µM (P. aeruginosa; [7]): 0.7
fold induction at 50 µM (K. pneumoniae; [8]): 0.6
fold induction at 50 µM (E. faecium; [9]): 1
